Data published in patent US8084466B2, “Bicyclic heteroaryl-substituted imidazoles as modulators of the histamine H4 receptor” (Janssen Pharmaceutica NV, priority 2007, dated 2011).

Biological target: T1, human histamine H4 receptor (Homo sapiens, UniProt Q9H3N8)
T1 construct: expressed in transfected cells; host or cells: SK-N-MC cells or COS7 cells, transient transfection with pH4R; cell membranes
Experiment: Binding Assay on Recombinant Human Histamine H4 Receptor
Conditions: competition binding with 3H-histamine (5 nM; KD 5 nM), membranes of SK-N-MC or COS7 cells expressing human H4 receptor; average of results; > = highest value tested
Summary of the method: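 Membranes from SK-N-MC or COS7 cells transiently transfected with H4R incubated 45 min at room temperature with ³H-histamine; nonspecific binding defined with 10,000 nM histamine. Filtration and scintillation counting. Ki from competition with 5 nM ³H-histamine, using a KD of 5 nM.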

Ki [nM] | Structure (SMILES)
157 | Cc1cccc2[nH]c(-c3ccc4c(c3)CCN4CCCC3CCN(C)CC3)nc12 [Example 98, 4-Methyl-2-{1-[3-(1-methyl-piperidin-4-yl)-propyl]-2,3-dihydro-1H-indol-5-yl}-1H-benzoimidazole]
2670 | Fc1cc(F)c2nc(-c3cc4ccn(CCCC5CCNCC5)c4cc3Cl)[nH]c2c1 [Example 99, 2-[6-Chloro-1-(3-piperidin-4-yl-propyl)-1H-indol-5-yl]-4,6-difluoro-1H-benzoimidazole]
3330 | Cc1ccc2[nH]c(-c3cc4ccn(CCCC5CCNCC5)c4cc3Cl)nc2c1C [Example 100, 2-[6-Chloro-1-(3-piieridin-4-yl-propyl)-1H-indol-5-yl]-4,5-dimethyl-1H-benzoimidazole]
3330 | Clc1ccc2[nH]c(-c3cc4ccn(CCCC5CCNCC5)c4cc3Cl)nc2c1 [Example 101, 5-Chloro-2-[6-chloro-1-(3-piperidin-4-yl-propyl)-1H-indol-5-yl]-1H-benzoimidazole]
> 10000 | CN1CCC(CCCn2ccc3cc(-c4nc5cc(Cl)ccc5[nH]4)c(Cl)cc32)CC1 [Example 102, 5-Chloro-2-{6-chloro-1-[3-(1-methyl-piperidin-4-yl)-propyl]-1H-indol-5-yl}-1H-benzoimidazole]
2770 | Cc1ccc2[nH]c(-c3cc4ccn(CCCC5CCN(C)CC5)c4cc3Cl)nc2c1C [Example 103, 2-{6-Chloro-1-[3-(1-methyl-piperidin-4-yl)-propyl]-1H-indol-5-yl}-4,5-dimethyl-1H-benzoimidazole]
2330 | Cc1cc(Cl)cc2[nH]c(-c3cccc4c3ccn4CCCCC3CCNCC3)nc12 [Example 104, 6-Chloro-4-methyl-2-[1-(4-piperidin-4-yl-butyl)-1H-indol-4-yl]-1H-benzoimidazole]
2660 | CC(C)(C)c1ccc2[nH]c(-c3cccc4c3ccn4CCCCC3CCNCC3)nc2c1 [Example 105, 5-tert-Butyl-2-[1-(4-piperidin-4-yl-butyl)-1H-indol-4-yl]-1H-benzoimidazole]
2640 | Cc1ccc2[nH]c(-c3cccc4c3ccn4CCCCC3CCNCC3)nc2c1C [Example 106, 6,7-Dimethyl-2-[1-(4-piperidin-4-yl-butyl)-1H-indol-4-yl]-1H-benzoimidazole]
> 10000 | Cc1cccc2[nH]c(-c3ccc4ccn(CCCCC5CCNCC5)c4c3)nc12 [Example 107, 4-Methyl-2-[1-(4-piperidin-4-yl-butyl)-1H-indol-6-yl]-1H-benzoimidazole]
2000 | Cc1cc(Cl)cc2[nH]c(-c3ccc4ccn(CCCCC5CCNCC5)c4c3)nc12 [Example 108]
2670 | CC(C)(C)c1ccc2[nH]c(-c3ccc4ccn(CCCCC5CCNCC5)c4c3)nc2c1 [Example 109, 5-tert-Butyl-2-[1-(4-piperidin-4-yl-butyl)-1H-indol-6-yl]-1H-benzoimidazole]
3330 | Fc1ccc2[nH]c(-c3cccc4c3ccn4CCCCC3CCNCC3)nc2c1F [Example 110, 4,5-Difluoro-2-[1-(4-piperidin-4-yl-butyl)-1H-indol-4-yl]-1H-benzoimidazole]
478 | Cc1cccc2[nH]c(-c3ccc4c(ncn4CCCC4CCNCC4)c3C)nc12 [Example 111, 4,4′-Dimethyl-1′-(3-piperidin-4-yl-propyl)-1H,1′H-[2,5′]bibenzoimidazolyl]
251 | Cc1cc(F)cc2[nH]c(-c3ccc4c(ncn4CCCC4CCNCC4)c3C)nc12 [Example 112, 6-Fluoro-4,4′-dimethyl-1′-(3-piperidin-4-yl-propyl)-1H,1′H-[2,5′]bibenzoimidazolyl]
165 | Cc1c(Cl)ccc2[nH]c(-c3ccc4c(ncn4CCCC4CCNCC4)c3C)nc12 [Example 113, 5-Chloro-4,4′-dimethyl-1′-(3-piperidin-4-yl-propyl)-1H,1′H-[2,5′]bibenzoimidazolyl]
205 | Cc1c(F)ccc2[nH]c(-c3ccc4c(ncn4CCCC4CCNCC4)c3C)nc12 [Example 114, 5-Fluoro-4,4′-dimethyl-1′-(3-piperidin-4-yl-propyl)-1H,1′H-[2,5′]bibenzoimidazolyl]
> 10000 | Fc1ccc2[nH]c(-c3cccc4c3ccn4CCCCC3CCNCC3)nc2c1 [Example 115, 5-Fluoro-2-[1-(4-piperidin-4-yl-butyl)-1H-indol-4-yl]-1H-benzoimidazole]
3330 | Fc1cc(F)c2nc(-c3cccc4c3ccn4CCCCC3CCNCC3)[nH]c2c1 [Example 116, 4,6-Difluoro-2-[1-(4-piperidin-4-yl-butyl)-1H-indol-4-yl]-1H-benzoimidazole]
> 10000 | Cc1cccc2[nH]c(-c3ccc4c(c3)ncn4CCCCC3CCNCC3)nc12 [Example 117, 4-Methyl-1′-(4-piperidin-4-yl-butyl)-1H,1′H-[2.5′]bibenzoimidazolyl]
3000 | Cc1ccc2[nH]c(-c3ccc4c(c3)ncn4CCCCC3CCNCC3)nc2c1C [Example 118]

Ki [nM] | Structure (SMILES)
3330 | CN1CCC(CCCCn2cnc3cc(-c4nc5cc(F)ccc5[nH]4)ccc32)CC1 [Example 120, 5-Fluoro-1′-[4-(1-methyl-piperidin-4-yl)-butyl]-1H,1′H-[2,5′]bibenzoimidazolyl]
3000 | Cc1ccc2[nH]c(-c3ccc4c(c3)ncn4CCCCC3CCN(C)CC3)nc2c1C [Example 121, 4,5-Dimethyl-1′-[4-(1-methyl-piperidin-4-yl)-butyl]-1H,1′H-[2,5′]bibenzoimidazolyl]
1670 | Cc1cccc2[nH]c(-c3ccc4ncn(CCCCC5CCNCC5)c4c3)nc12 [Example 122, 4-Methyl-3′-(4-piperidin-4-yl-butyl)-1H,3′H-[2,5′]bibenzoimidazolyl]
3330 | Cc1ccc2[nH]c(-c3ccc4ncn(CCCCC5CCNCC5)c4c3)nc2c1C [Example 123, 4,5-Dimethyl-3′-(4-piperidin-4-yl-butyl)-1H,3′H-[2,5′]bibenzoimidazolyl]
> 10000 | Fc1ccc2[nH]c(-c3ccc4ncn(CCCCC5CCNCC5)c4c3)nc2c1 [Example 124, 5-Fluoro-3′-(4-piperidin-4-yl-butyl)-1H,3′H-[2,5′]bibenzoimidazolyl]
2670 | Cc1ccc2[nH]c(-c3ccc4ncn(CCCCC5CCN(C)CC5)c4c3)nc2c1C [Example 125, 4,5-Dimethyl-3′-[4-(1-methyl-piperidin-4-yl)-butyl]-1H,3′H-[2,5′]bibenzoimidazolyl]
> 10000 | CN1CCC(CCCCn2cnc3ccc(-c4nc5cc(F)ccc5[nH]4)cc32)CC1 [Example 126, 5-Fluoro-3′-[4-(1-methyl-piperidin-4-yl)-butyl]-1H,3′H [2,5′]bibenzoimidazolyl]
2100 | c1ccc2cc3[nH]c(-c4cccc5c4ccn5CCCCC4CCNCC4)nc3cc2c1 [Example 127, 2-[1-(4-Piperidin-4-yl-butyl)-1H-indol-4-yl]-1H-naphtho[2,3-d]imidazole]
2000 | O=C(c1ccccc1)c1ccc2[nH]c(-c3cccc4c3c(Cl)cn4CCCCC3CCNCC3)nc2c1 [Example 129, {2-[3-Chloro-1-(4-piperidin-4-yl-butyl)-1H-indol-4-yl]-1H-benzoimidazol-5-yl}-phenyl-methanone]
> 10000 | FC(F)(F)c1ccc2[nH]c(-c3cccc4c3c(Cl)cn4CCCCC3CCNCC3)nc2c1 [Example 130, 2-[3-Chloro-1-(4-piperidin-4-yl-butyl)-1H-indol-4-yl]-5-trifluoromethyl-1H-benzoimidazole]
3330 | Fc1cc2nc(-c3cccc4c3c(Cl)cn4CCCCC3CCNCC3)[nH]c2cc1F [Example 131, 2-[3-Chloro-1-(4-piperidin-4-yl-butyl)-1H-indol-4-yl]-5,6-difluoro-1H-benzoimidazole]
3330 | Fc1ccc2[nH]c(-c3cccc4c3c(Cl)cn4CCCCC3CCNCC3)nc2c1F [Example 132, 2-[3-Chloro-1-(4-piperidin-4-yl-butyl)-1H-indol-4-yl]-4,5-difluoro-1H-benzoimidazole]
> 10000 | Cc1c(F)ccc2[nH]c(-c3cccc4c3c(Cl)cn4CCCCC3CCNCC3)nc12 [Example 133, 2-[3-Chloro-1-(4-piperidin-4-yl-butyl)-1H-indol-4-yl]-5-fluoro-4-methyl-1H-benzoimidazole]
> 10000 | Cc1nc2ccc3nc(-c4cccc5c4c(Cl)cn5CCCCC4CCNCC4)[nH]c3c2s1 [Example 134, 7-[3-Chloro-1-(4-piperidin-4-yl-butyl)-1H-indol-4-yl]-2-methyl-8H-imidazo[4′,5′:3,4]benzo[1,2-d]thiazole]
> 10000 | COC(=O)c1ccc2nc(-c3cccc4c3c(Cl)cn4CCCCC3CCNCC3)[nH]c2c1 [Example 135, 2-[3-Chloro-1-(4-piperidin-4-yl-butyl)-1H-indol-4-yl]-3H-benzoimidazole-5-carboxylic acid methyl ester]
941 | Cc1nc2ccc3nc(-c4cccc5c4c(Cl)cn5CCCCC4CCN(C)CC4)[nH]c3c2s1 [Example 136, 7-{3-Chloro-1-[4-(1-methyl-piperidin-4-yl)-butyl]-1H-indol-4-yl}-2-methyl-8H-imidazo[4′,5′:3,4]benzo[1,2-d]thiazole]
2880 | COC(=O)c1ccc2nc(-c3cccc4c3c(Cl)cn4CCCCC3CCN(C)CC3)[nH]c2c1 [Example 137, 2-{3-Chloro-1-[4-(1-methyl-piperidin-4-yl)-butyl]-1H-indol-4-yl}-3H-benzoimidazole-5-carboxylic acid methyl ester]
429 | Cc1ccc2[nH]c(-c3ccc4c(ncn4CCCC4CCNCC4)c3C)nc2c1C [Example 138, 4,5,4′-Trimethyl-1′-(3-piperidin-4-yl-propyl)-1H,1′H-[2,5′]bibenzoimidazolyl]
2640 | Cc1cc(C)c2nc(-c3cccc4c3ccn4CCCCC3CCNCC3)[nH]c2c1 [Example 139, 4,6-Dimethyl-2-[1-(4-piperidin-4-yl-butyl)-1H-indol-4-yl]-1H-benzoimidazole]
3330 | Clc1ccc2nc(-c3cccc4c3ccn4CCCCC3CCNCC3)[nH]c2c1 [Example 140, 6-Chloro-2-[1-(4-piperidin-4-yl-butyl)-1H-indol-4-yl]-1H-benzoimidazole]
